# Data taken from patent US20220401564A1 (DANA-FARBER CANCER INSTITUTE, INC., priority 2019, published 2022).
# What was measured:
# Experiment in all cases: HDAC enzymatic assay (Reaction Biology), fluorogenic substrate
# Format in all cases: biochemical
# HDAC6 = molecular target: T1, HDAC6 (Homo sapiens, UniProt Q9UBN7); parameters: purchased Reaction Biology
# T1 sequence (Q9UBN7 1-1215): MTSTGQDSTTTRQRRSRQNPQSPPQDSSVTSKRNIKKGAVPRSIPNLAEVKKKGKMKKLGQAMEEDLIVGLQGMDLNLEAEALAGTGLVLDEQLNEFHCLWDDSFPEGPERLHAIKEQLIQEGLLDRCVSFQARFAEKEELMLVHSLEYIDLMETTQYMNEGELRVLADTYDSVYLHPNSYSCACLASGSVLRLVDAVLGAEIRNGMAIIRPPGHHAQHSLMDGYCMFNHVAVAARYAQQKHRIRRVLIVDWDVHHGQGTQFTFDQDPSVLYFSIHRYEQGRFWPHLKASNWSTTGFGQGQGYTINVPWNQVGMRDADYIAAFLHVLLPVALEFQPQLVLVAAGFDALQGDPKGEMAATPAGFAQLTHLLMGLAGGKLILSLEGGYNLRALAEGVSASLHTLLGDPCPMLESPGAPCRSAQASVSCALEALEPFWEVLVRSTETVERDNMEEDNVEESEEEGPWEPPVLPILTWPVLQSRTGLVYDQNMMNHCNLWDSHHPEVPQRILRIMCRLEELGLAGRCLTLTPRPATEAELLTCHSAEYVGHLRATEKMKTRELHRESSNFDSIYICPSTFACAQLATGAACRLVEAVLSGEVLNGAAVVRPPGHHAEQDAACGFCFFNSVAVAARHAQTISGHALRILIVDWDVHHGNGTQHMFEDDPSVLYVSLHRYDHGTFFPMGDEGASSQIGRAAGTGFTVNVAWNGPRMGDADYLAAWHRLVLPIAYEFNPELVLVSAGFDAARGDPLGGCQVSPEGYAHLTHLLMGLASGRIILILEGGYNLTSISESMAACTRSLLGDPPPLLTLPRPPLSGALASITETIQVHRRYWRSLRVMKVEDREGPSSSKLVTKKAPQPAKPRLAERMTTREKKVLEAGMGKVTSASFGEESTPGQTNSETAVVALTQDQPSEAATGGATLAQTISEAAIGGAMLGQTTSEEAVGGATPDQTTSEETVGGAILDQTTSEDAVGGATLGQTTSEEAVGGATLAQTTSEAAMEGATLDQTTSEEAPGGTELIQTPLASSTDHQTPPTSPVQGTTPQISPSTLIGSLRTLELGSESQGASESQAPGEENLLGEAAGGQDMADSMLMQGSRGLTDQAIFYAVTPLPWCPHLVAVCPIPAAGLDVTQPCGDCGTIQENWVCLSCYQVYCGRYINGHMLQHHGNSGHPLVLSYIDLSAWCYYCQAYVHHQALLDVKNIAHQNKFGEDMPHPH
# Method: (§1) Compounds 2 and 9 were tested in an enzymatic assay from Reaction Biology® against HDAC isoforms.
# (§2) Base Reaction buffer: 50 mM Tris-HCl, pH8.0, 137 mM NaCl, 2.7 mM KCl, and 1 mM MgCl2. Add fresh: 1 mg/ml BSA, 1% DMSO
# (§3) Fluorogenic HDAC General Substrate (HDAC1, HDAC2, HDAC3, HDAC6, HDAC10, and HDAC11): 50 μM, Arg-His-Lys-Lys(Ac)-AMC
# (§4) 1. Delivered 2X enzyme in wells of reaction plate except in the control wells and added buffer to control wells. 2. Delivered compounds in 100% DMSO into the enzyme mixture by Acoustic technology (Echo550; nanoliter range). Spin down and pre-incubation. 3. Delivered 2X Substrate Mixture (Fluorogenic HDAC Substrate and co-factor if applicable) in all reaction wells to initiate the reaction. Spin and shake. 4. Incubated for 30 min for Class 2A, 1 h for HDAC1, 2, 3, and 6, and 2 h for the rest of HDAC isoforms and SIRTs at 30° C. with seal.
# (§5) 5. Added Developer with Trichostatin A (or Nicotinamide for SIRTs) to stop the reaction and to generate fluorescent color. 6. The fluorescence that was generated was detected with excitation (Ex) at […] and emission (Em) at 460 nM by the EnVision Multilabel Plate Reader (PerkinElmer®, Santa Clara, Calif., USA).
# (§6) IC50 values were derived from a 10-dose response curve. As shown in Tables 1-2, the addition of a linker and CRBN targeting group altered the isoform selectivity of the SAHA-based degrader compounds.
# HDAC3 = HDAC3 (Homo sapiens, UniProt O15379); parameters: purchased Reaction Biology
# Sequence of HDAC3 (O15379 whole entry): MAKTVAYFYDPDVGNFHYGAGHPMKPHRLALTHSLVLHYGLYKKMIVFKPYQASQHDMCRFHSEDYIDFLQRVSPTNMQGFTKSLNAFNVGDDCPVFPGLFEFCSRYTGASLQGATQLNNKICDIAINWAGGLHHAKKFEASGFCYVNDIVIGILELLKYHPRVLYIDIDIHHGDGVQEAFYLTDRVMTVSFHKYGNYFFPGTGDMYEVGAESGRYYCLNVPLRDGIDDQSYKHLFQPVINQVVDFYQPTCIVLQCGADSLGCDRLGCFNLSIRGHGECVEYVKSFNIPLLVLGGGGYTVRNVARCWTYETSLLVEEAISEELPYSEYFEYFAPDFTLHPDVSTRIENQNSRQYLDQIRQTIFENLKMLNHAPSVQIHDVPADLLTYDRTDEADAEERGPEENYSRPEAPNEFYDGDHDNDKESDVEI
# Sequence of HDAC3 (Q9Y618 395-489 partner limits assumed): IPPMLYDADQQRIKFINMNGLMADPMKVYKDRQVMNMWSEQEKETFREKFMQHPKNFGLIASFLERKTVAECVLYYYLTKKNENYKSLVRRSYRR
# Method: as §1, §2, §3, §4, §5, §6
# HDAC2 = molecular target: T2, HDAC2 (Homo sapiens, UniProt Q92769)
# T2 construct: purchased Reaction Biology
# T2 sequence (Q92769 whole entry): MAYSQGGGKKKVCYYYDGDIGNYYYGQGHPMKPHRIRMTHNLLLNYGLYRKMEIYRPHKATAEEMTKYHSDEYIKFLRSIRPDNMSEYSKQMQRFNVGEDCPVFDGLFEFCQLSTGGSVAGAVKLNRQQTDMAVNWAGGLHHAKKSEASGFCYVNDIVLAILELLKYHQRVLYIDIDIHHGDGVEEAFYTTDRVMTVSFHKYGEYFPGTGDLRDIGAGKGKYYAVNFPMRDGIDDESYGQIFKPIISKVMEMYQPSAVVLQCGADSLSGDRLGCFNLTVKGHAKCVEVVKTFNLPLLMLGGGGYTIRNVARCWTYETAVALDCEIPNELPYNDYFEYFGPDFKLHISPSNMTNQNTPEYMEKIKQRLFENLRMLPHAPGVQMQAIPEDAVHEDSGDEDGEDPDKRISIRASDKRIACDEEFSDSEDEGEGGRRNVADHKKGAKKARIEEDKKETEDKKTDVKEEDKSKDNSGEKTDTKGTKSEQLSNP
# Method: as §1, §2, §3, §4, §5, §6
# HDAC1 = molecular target: T3, HDAC1 (Homo sapiens, UniProt Q13547)
# T3 construct: purchased Reaction Biology
# T3 sequence (Q13547 whole entry): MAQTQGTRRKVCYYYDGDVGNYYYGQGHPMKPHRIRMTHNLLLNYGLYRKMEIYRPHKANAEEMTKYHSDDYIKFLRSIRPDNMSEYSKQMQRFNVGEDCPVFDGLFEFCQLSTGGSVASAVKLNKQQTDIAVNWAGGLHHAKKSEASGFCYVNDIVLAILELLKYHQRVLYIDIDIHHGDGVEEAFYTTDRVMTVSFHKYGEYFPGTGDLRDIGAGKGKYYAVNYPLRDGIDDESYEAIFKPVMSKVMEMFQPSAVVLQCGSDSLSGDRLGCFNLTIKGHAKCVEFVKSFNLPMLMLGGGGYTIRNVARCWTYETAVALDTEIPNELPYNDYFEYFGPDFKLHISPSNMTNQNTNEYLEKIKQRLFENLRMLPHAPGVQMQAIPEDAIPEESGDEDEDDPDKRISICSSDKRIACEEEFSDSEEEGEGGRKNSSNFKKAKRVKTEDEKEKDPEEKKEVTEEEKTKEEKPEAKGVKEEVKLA
# Method: as §1, §2, §3, §4, §5, §6
smiles,measurement,setting,value
"Cc1ncsc1-c1ccc([C@H](C)NC(=O)[C@@H]2C[C@@H](O)CN2C(=O)[C@@H](NC(=O)CCOCCOCCN(CCc2c[nH]c3ccccc23)Cc2ccc(/C=C/C(=O)NO)cc2)C(C)(C)C)cc1 [Compound 2, (2S,4R)-1-((S)-14-(tert-butyl)-3-(4-((E)-3-(hydroxyamino)-3-oxoprop-1-en-1-yl)benzyl)-1-(1H-indol-3-yl)-12-oxo-6,9-dioxa-3,13-diazapentadecan-15-oyl)-4-hydroxy-N—((S)-1-(4-(4-methylthiazol-5-yl)phenyl)ethyl)pyrrolidine-2-carboxamide]",inhibition of HDAC6 activity in vitro (in words),HDAC6,potently inhibited
same,IC50,"HDAC6; 10-dose response curve, read-out: Compound IC50 (M), HDAC6",7.85e-08 M
same,inhibition of HDAC3 deacetylase activity in vitro (in words),HDAC3,Moderate inhibition
same,IC50,"HDAC3; 10-dose response curve, read-out: Compound IC50 (M), HDAC3",5.77e-07 M
same,inhibition of HDAC2 deacetylase activity in vitro (in words),HDAC2,Moderate inhibition
same,IC50,"HDAC2; 10-dose response curve, read-out: Compound IC50 (M), HDAC2",1.03e-06 M
same,inhibition of HDAC1 deacetylase activity in vitro (in words),HDAC1,Moderate inhibition
same,IC50,"HDAC1; 10-dose response curve, read-out: Compound IC50 (M), HDAC1",4.81e-07 M
